Data set [1] concerns the target Abl (h) (Homo sapiens, UniProt P00519). The experiment in a line: Kinase profiling, glass-fiber filter technology: Abl. Format: biochemical. Conditions: test concentration of 10^−6 M; read-out: Abl inhibition score. On the procedure:
(§1) The in vitro inhibition of a panel of kinases was assessed using the glass-fiber filter technology as described by Davies, S. P. et al., Biochem J. (2000), 351; p. 95-105.
(§2) In the glass-fiber filter technology the activity of the kinase of interest is measured using an appropriate substrate that is incubated with the aforementioned kinase protein in the presence of (^33P) radiolabeled ATP. (^33P) Phosporylation of the substrate is subsequently measured as radioactivity bound on a glassfiber-filter.
(§3) All kinases are pre-diluted to a 10× working concentration prior to addition into the assay. The composition of the dilution buffer for each kinase is detailed below.
(§4) All substrates are dissolved and diluted to working stocks in de-ionised water.
(§5) In a final reaction volume of 25 μl, Abl (h) (5-10 mU) is incubated with 8 mM MOPS pH 7.0, 0.2 mM EDTA, 50 μM EAIYAAPFAKKK, 10 mM MgAcetate and [γ-^33P-ATP] (specific activity approx. 500 cpm/pmol, concentration as required). The reaction is initiated by the addition of the MgATP mix. After incubation for 40 minutes at room temperature, the reaction is stopped by the addition of 5 μl of a 3% phosphoric acid solution. 10 μl of the reaction is then spotted onto a P30 filtermat and washed three times for 5 minutes in 75 mM phosphoric acid and once in methanol prior to drying and scintillation counting.

Data set [2] deals with CDK5/p35 human (Homo sapiens, UniProt Q00535). The experiment in a line: Kinase profiling, glass-fiber filter technology: CDK5/p35. Format: biochemical. Conditions: test concentration of 10^−6 M; read-out: CDK5/p35 inhibition score. On the procedure:
as §1, §2, §3, §4
as §5, with “CDK5/p35 human” for “Abl (h)”, “0.1 mg/ml histone H1,” for “50 μM EAIYAAPFAKKK,”

Data set [3] addresses CDK6/cyclinD3 human (Homo sapiens, UniProt Q00534). The experiment in a line: Kinase profiling, glass-fiber filter technology: CDK6/cyclinD3. In kind it is biochemical. The note with it: test concentration of 10^−6 M; read-out: CDK6/cyclinD3 inhibition score. The method, then: as §1, §2, §3, §4
as §5, with “CDK6/cyclinD3 human” for “Abl (h)”, “0.1 mg/ml histone H1,” for “50 μM EAIYAAPFAKKK,”

Chain of Abl (h) (P00519 whole entry): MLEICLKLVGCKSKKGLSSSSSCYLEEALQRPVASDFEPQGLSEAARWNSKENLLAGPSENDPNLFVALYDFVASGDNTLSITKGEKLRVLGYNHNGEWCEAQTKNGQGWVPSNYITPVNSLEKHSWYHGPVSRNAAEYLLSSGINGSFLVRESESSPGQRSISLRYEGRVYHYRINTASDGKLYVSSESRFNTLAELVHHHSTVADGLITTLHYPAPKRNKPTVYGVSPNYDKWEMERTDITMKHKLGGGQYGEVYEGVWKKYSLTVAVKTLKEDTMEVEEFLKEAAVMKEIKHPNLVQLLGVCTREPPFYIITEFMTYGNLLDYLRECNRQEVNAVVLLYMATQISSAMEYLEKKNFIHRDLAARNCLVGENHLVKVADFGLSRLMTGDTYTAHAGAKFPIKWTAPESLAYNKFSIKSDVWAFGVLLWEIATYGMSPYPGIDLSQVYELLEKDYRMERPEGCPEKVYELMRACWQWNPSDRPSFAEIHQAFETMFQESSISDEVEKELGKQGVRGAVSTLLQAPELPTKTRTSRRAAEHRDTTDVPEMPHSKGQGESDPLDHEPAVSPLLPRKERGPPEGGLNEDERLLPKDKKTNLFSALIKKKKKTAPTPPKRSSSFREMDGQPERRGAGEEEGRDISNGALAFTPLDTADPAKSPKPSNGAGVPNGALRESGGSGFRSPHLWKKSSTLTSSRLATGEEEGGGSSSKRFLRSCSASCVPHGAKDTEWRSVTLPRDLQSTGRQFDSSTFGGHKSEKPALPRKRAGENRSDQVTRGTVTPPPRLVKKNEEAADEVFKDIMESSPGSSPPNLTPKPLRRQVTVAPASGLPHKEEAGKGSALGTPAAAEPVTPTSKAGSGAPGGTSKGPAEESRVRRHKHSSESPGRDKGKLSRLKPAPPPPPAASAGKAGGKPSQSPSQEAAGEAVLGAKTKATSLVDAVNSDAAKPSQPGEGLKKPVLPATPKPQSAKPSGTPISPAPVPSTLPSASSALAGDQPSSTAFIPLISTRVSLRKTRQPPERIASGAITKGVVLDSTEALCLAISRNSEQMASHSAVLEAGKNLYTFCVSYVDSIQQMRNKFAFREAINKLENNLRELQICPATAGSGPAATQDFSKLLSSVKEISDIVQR
Chain of CDK5/p35 human (Q00535 whole entry): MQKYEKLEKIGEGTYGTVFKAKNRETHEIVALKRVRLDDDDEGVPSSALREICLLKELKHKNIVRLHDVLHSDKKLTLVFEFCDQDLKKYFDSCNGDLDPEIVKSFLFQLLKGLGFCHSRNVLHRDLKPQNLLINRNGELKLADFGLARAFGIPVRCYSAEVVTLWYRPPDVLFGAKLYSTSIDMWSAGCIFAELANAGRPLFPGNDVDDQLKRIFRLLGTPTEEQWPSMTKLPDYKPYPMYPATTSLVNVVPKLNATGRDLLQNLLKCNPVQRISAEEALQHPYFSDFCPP
Chain of CDK5/p35 human (Q15078 whole entry partner): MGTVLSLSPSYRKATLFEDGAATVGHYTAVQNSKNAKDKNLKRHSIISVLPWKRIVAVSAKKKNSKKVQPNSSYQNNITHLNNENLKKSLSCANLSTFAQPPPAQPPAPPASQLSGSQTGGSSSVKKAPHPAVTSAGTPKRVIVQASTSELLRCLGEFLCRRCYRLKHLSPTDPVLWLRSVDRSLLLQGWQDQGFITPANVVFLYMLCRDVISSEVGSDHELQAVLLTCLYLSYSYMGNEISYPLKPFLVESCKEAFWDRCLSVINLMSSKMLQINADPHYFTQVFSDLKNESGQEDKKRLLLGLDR
Chain of CDK6/cyclinD3 human (Q00534 whole entry): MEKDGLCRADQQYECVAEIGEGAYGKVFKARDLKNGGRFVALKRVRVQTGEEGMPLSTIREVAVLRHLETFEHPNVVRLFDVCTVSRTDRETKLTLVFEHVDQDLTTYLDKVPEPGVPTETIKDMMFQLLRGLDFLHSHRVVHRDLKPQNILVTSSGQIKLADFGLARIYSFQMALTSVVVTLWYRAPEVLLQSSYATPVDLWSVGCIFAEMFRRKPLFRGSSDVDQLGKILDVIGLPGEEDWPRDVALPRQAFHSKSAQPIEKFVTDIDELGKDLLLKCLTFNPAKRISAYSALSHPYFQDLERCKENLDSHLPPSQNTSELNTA
Chain of CDK6/cyclinD3 human (P30281 whole entry partner): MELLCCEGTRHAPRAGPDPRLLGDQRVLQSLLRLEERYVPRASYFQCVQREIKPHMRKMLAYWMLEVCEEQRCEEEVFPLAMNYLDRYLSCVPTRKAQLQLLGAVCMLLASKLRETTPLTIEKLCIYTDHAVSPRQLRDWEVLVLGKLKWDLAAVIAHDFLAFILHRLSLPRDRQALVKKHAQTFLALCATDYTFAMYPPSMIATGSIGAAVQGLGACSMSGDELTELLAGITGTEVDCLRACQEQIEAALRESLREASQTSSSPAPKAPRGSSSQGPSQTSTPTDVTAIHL

Usually melting point stands for the temperature of the solid-liquid transition. Take `CC(=O)NCCN1CCN(CCCOc2cc3ncnc4c3cc2OCCCNC(=O)[C@H](C)N(C)Cc2cc(F)c(Cl)cc2N4)CC1` [Compound 6]: the melting point is 136 °C. Further, in data set [1], the inhibition at 1 µM is over 80%.
Regarding `COc1cc2ncnc3c2cc1OCCCN(CCCN1CCOCC1)C(=O)[C@H](CC(C)C)NC(=O)Cc1ccc(Br)cc1N3` [Int. 25], the inhibition at 1 µM in data set [1] lay in the range of 10 to 30%.
For `COc1cc2ncnc3c2cc1OCCCN(CCN1CCOCC1)C(=O)CNC(=O)Cc1ccc(Cl)cc1N3` [Compound 15], the inhibition at 1 µM in data set [1] was over 80%; in data set [2], 10 to 30%.
In the case of `CN1CCCCCOc2cc3c(ncnc3cc2OCCCNCCS(C)(=O)=O)Nc2cc(Cl)c(F)cc2C1` [Compound 18], the inhibition at 1 µM in data set [1] was over 80%.
Consider `CN1CCCCCOc2cc3c(ncnc3cc2OC[C@H](O)CNCCOCCO)Nc2cc(Cl)c(F)cc2C1` [Compound 17], for which the inhibition at 1 µM in data set [1] was over 80%.
Turning to `COCCOCCOc1cc2ncnc3c2cc1OCCCCCN(C)Cc1ccc(Br)cc1N3` [Int. 43], the inhibition at 1 µM in data set [1] lay within 60 to 80%; in data set [3], 10 to 30%.
`CC(=O)NCCNCCCOc1cc2ncnc3c2cc1OCCCNC(=O)[C@H](C)N(C)Cc1cc(F)c(Cl)cc1N3` [Compound 4]: the melting point was determined as 112 °C.

Values taken from US9688691B2, “Macrocyclic quinazole derivatives and their use as MTKI” (Janssen Pharmaceutica NV, priority 2004, dated 2017).
